Here are results for three compounds from patent US11208412B2 (DAEGU-GYEONGBUK MEDICAL INNOVATION FOUNDATION, priority 2017, dated 2021).

Holding throughout (experiment): Kinase selectivity, DiscoverX scanMAX Kinase assay panel (% control)
What all share (assay type): binding

In assay [1] the target is T1, kinases of the scanMAX Kinase assay panel (Homo sapiens, UniProt P08922).
T1 construct: purchased DiscoverX Co. (contract measurement) scanMAX Kinase assay panel
As to conditions: kinase ROS1; 1 uM in DMSO. The essentials: (§1)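 A 1 uM DMSO solution of compound was applied across the panel kinases, and results were expressed as % control relative to DMSO (100%) and a positive control (0%).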

The target in assay [2] is T2, kinases of the scanMAX Kinase assay panel (Homo sapiens, UniProt P50750).
T2 construct: purchased DiscoverX Co. (contract measurement) scanMAX Kinase assay panel
T2 sequence (P50750 whole entry): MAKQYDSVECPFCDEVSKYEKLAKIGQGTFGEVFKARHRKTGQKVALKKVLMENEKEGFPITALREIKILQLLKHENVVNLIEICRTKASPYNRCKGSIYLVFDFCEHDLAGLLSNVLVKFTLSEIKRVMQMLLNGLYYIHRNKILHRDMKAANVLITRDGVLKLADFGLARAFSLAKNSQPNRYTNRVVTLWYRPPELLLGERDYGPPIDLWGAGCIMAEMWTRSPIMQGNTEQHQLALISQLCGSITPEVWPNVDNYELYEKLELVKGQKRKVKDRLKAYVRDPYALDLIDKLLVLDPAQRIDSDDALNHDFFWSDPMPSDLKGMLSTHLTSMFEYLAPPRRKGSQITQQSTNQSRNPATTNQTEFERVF
As to conditions: CDK9; 1 uM. The essentials: as §1

The target of assay [3] is T3, kinases of the scanMAX Kinase assay panel (Homo sapiens, UniProt P51957).
T3 construct: purchased DiscoverX Co. (contract measurement) scanMAX Kinase assay panel
As to conditions: NEK4; 1 uM. The essentials: as §1

The target of assay [4] is T4, kinases of the scanMAX Kinase assay panel (Homo sapiens, UniProt Q9NYL2).
T4 construct: purchased DiscoverX Co. (contract measurement) scanMAX Kinase assay panel
As to conditions: kinase ZAK; 1 uM in DMSO. A digest of the protocol: as §1

Assay [5] concerns the target T5, kinases of the scanMAX Kinase assay panel (Homo sapiens, UniProt Q59H18).
T5 construct: purchased DiscoverX Co. (contract measurement) scanMAX Kinase assay panel
T5 sequence (Q59H18 1-835): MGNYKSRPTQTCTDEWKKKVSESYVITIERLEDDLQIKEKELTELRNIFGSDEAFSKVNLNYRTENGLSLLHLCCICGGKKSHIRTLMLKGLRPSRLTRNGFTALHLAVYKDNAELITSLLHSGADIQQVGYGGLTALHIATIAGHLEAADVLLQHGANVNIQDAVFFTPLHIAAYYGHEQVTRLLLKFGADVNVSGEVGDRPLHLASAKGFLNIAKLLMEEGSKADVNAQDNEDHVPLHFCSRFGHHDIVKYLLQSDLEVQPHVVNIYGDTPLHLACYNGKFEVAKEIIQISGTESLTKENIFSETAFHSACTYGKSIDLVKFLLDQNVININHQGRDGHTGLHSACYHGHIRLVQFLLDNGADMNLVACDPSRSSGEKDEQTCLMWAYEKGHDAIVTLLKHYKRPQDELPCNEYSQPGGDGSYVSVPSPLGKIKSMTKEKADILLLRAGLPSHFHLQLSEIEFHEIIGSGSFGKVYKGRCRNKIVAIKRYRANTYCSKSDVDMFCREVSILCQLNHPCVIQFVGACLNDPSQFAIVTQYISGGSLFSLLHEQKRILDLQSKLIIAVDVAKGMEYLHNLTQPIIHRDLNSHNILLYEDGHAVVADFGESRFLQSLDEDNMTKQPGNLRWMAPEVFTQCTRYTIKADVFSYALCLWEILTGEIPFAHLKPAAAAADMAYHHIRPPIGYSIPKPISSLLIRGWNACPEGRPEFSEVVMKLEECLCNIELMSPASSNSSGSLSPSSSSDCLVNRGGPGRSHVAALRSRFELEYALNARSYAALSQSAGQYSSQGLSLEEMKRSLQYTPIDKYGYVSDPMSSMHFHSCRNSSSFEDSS
Particulars: kinase TNNI3K; 1 uM in DMSO. The essentials: as §1

Assay [6] deals with T6, kinases of the scanMAX Kinase assay panel (Homo sapiens, UniProt Q86Z02).
T6 construct: purchased DiscoverX Co. (contract measurement) scanMAX Kinase assay panel
As to conditions: HIPK1; 1 uM. A digest of the protocol:
as §1

Assay [7] has as its target T7, kinases of the scanMAX Kinase assay panel (Homo sapiens, UniProt Q5S007).
T7 construct: purchased DiscoverX Co. (contract measurement) scanMAX Kinase assay panel
Particulars: LRRK2; 1 uM. A digest of the protocol: as §1

For assay [8], the target named is T8, kinases of the scanMAX Kinase assay panel (Homo sapiens, UniProt P10721, A829P).
T8 construct: purchased DiscoverX Co. (contract measurement) scanMAX Kinase assay panel
T8 sequence (P10721 26-976 A829P): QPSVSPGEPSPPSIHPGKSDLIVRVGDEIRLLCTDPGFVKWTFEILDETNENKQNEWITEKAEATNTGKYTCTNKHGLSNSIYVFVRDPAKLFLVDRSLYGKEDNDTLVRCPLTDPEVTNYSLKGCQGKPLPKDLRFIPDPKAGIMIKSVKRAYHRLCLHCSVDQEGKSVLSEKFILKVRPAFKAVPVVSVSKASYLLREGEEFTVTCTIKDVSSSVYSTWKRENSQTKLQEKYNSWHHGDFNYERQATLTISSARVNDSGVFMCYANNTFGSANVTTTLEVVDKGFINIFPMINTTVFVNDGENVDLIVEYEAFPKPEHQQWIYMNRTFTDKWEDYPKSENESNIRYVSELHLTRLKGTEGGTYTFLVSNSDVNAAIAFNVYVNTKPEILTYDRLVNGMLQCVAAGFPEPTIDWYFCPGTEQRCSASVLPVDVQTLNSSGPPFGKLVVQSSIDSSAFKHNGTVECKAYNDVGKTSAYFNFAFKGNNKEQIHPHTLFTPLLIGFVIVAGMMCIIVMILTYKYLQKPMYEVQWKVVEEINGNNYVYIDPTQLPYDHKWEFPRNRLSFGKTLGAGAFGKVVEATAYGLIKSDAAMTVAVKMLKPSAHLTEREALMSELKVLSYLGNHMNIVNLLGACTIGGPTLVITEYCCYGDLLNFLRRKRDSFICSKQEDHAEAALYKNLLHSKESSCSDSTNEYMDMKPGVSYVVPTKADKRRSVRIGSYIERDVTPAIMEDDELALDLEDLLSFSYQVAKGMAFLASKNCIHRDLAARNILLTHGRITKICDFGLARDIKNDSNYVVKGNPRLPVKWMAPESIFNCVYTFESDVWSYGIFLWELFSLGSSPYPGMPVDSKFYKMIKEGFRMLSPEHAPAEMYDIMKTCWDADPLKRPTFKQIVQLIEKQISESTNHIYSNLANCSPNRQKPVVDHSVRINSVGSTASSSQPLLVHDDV
As to conditions: KIT(A829P); 1 uM. The essentials:
as §1

The target of assay [9] is T9, kinases of the scanMAX Kinase assay panel (Homo sapiens, UniProt Q8IU85).
T9 construct: purchased DiscoverX Co. (contract measurement) scanMAX Kinase assay panel
Particulars: CAMK1D; 1 uM. The essentials:
as §1

The target in assay [10] is T10, kinases of the scanMAX Kinase assay panel (Homo sapiens, UniProt P23443).
T10 construct: purchased DiscoverX Co. (contract measurement) scanMAX Kinase assay panel
As to conditions: kinase S6K1; 1 uM in DMSO. A digest of the protocol:
as §1

Assay [11] has as its target T11, kinases of the scanMAX Kinase assay panel (Homo sapiens, UniProt P17612).
T11 construct: purchased DiscoverX Co. (contract measurement) scanMAX Kinase assay panel
As to conditions: PKAC-alpha; 1 uM. The essentials:
as §1

For assay [12], the target named is T12, kinases of the scanMAX Kinase assay panel (Homo sapiens, UniProt O75460).
T12 construct: purchased DiscoverX Co. (contract measurement) scanMAX Kinase assay panel
Particulars: ERN1; 1 uM. The essentials: as §1

In assay [13] the target is T13, kinases of the scanMAX Kinase assay panel (Homo sapiens, UniProt P42679).
T13 construct: purchased DiscoverX Co. (contract measurement) scanMAX Kinase assay panel
T13 sequence (P42679 1-507): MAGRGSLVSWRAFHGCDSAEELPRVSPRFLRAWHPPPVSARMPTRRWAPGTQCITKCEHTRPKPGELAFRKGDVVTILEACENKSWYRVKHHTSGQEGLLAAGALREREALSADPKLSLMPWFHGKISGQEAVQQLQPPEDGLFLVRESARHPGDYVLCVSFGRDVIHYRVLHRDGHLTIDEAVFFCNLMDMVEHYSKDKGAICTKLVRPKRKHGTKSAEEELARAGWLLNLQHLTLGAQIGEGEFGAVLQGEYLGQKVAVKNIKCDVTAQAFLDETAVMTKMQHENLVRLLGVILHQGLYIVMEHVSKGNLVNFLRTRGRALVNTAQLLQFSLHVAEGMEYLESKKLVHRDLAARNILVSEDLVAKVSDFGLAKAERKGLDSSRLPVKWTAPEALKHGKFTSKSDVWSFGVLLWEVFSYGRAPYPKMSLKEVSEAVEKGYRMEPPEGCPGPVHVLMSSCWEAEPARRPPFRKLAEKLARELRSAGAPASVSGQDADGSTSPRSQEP
Particulars: CTK; 1 uM. A digest of the protocol:
as §1

The target in assay [14] is T14, kinases of the scanMAX Kinase assay panel (Homo sapiens, UniProt P49761).
T14 construct: purchased DiscoverX Co. (contract measurement) scanMAX Kinase assay panel
As to conditions: CLK3; 1 uM. The essentials: as §1

Assay [15] has as its target T15, kinases of the scanMAX Kinase assay panel (Homo sapiens, UniProt P49840).
T15 construct: purchased DiscoverX Co. (contract measurement) scanMAX Kinase assay panel
Particulars: GSK3A; 1 uM. The essentials:
as §1

For assay [16], the target named is T16, kinases of the scanMAX Kinase assay panel (Homo sapiens, UniProt Q9H3Y6).
T16 construct: purchased DiscoverX Co. (contract measurement) scanMAX Kinase assay panel
T16 sequence (Q9H3Y6 whole entry): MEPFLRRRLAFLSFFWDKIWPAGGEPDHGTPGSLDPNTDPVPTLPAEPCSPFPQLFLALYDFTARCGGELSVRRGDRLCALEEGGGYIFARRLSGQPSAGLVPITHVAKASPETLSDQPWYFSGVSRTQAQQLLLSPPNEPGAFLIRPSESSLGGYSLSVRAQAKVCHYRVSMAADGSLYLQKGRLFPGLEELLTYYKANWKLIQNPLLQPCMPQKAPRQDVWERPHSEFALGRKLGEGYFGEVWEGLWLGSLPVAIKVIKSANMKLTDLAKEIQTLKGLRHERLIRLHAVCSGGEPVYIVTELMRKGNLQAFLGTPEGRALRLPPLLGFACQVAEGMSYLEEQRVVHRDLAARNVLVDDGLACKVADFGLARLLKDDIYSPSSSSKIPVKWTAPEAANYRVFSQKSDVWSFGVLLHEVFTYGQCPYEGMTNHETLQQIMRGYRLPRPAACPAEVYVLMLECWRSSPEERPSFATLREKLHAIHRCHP
Particulars: kinase SRMS; 1 uM in DMSO. A digest of the protocol: as §1

T7 sequence (Q5S007 whole entry): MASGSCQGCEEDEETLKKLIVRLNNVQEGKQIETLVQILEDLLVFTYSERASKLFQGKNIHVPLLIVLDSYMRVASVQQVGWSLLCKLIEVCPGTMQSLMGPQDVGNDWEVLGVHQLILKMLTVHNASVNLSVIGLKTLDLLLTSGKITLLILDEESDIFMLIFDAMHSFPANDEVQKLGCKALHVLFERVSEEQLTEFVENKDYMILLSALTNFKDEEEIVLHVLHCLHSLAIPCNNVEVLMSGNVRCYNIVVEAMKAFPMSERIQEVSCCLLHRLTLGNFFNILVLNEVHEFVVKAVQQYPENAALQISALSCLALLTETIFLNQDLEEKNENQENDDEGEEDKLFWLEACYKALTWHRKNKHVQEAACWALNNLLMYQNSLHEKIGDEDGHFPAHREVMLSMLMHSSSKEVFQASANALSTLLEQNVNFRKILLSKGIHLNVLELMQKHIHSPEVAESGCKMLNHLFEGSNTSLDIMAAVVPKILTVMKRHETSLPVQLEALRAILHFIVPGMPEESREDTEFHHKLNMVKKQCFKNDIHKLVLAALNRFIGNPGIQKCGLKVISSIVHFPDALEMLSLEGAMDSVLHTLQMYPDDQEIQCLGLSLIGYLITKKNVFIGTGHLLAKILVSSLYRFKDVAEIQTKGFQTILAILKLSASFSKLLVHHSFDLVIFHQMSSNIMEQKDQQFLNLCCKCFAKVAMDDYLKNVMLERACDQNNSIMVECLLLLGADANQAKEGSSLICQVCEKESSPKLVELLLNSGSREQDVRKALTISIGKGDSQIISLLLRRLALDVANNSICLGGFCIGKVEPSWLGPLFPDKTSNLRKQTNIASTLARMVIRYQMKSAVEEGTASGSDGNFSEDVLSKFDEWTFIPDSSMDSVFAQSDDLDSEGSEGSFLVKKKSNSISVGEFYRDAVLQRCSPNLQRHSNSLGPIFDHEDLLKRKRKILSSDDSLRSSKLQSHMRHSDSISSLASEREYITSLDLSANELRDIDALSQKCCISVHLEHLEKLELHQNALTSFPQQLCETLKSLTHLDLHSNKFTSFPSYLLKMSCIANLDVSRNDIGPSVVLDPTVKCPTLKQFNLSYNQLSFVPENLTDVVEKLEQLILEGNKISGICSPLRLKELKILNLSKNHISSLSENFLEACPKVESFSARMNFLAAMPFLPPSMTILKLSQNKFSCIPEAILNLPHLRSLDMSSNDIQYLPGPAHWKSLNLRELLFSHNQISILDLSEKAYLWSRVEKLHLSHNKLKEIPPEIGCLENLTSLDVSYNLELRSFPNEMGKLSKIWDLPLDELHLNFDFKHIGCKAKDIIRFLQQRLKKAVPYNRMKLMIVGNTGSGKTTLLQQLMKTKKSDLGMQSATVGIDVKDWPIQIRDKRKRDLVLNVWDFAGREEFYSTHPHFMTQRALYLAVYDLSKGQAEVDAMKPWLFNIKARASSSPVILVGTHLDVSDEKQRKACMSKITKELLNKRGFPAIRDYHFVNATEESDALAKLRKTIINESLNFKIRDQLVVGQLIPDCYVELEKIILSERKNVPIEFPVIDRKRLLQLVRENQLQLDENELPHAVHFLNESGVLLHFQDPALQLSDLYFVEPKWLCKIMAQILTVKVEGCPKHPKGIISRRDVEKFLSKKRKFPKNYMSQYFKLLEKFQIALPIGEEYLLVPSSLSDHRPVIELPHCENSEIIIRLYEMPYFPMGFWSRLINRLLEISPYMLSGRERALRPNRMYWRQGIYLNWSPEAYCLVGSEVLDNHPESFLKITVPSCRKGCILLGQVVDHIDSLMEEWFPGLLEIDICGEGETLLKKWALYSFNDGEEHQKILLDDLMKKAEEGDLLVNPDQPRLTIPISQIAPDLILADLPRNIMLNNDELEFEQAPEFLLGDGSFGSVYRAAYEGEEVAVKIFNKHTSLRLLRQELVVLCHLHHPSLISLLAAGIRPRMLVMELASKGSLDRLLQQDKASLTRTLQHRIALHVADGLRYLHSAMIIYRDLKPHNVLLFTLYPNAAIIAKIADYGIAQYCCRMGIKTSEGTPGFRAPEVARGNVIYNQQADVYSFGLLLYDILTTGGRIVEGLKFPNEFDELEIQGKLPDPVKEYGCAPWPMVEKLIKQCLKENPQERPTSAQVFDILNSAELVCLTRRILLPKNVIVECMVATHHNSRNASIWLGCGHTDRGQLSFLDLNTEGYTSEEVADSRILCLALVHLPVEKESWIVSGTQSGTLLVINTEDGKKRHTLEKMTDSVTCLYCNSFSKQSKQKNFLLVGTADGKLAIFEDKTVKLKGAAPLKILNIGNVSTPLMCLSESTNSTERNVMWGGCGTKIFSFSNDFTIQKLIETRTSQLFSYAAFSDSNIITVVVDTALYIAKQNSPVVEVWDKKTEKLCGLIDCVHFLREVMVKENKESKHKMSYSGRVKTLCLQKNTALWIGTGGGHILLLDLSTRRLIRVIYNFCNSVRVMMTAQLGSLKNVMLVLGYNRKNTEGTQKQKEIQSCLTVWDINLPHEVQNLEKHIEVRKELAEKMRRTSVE
T15 sequence (P49840 whole entry): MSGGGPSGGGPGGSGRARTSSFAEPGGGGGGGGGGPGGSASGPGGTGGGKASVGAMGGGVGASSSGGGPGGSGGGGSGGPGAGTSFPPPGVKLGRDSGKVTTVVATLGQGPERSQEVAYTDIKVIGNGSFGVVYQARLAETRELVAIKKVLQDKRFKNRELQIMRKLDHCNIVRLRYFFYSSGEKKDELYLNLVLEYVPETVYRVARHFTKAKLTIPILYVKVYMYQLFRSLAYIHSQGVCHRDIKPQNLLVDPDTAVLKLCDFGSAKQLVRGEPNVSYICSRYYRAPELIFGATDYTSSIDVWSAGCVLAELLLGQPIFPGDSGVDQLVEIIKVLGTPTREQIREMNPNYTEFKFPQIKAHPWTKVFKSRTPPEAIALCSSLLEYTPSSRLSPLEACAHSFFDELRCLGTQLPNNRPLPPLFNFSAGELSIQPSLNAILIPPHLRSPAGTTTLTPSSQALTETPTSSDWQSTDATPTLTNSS

As for `CNc1nc(Nc2ccc(C(=O)N3CCOCC3)cc2OC)nc2[nH]cc(C#N)c12` [Example 1, 2-((2-methoxy-4-(morpholine-4-carbonyl)phenyl)amino)-4-(methylamino)-7H-pyrrolo[2,3-d]pyrimidine-5-carbonitrile], the remaining binding at 1 µM in assay [1] was determined as 56%; in [2], 96%; in [3], 75%; in [4], 100%; in [5], 99%; in [6] it was 61%. For the same compound, the remaining binding at 1 µM in [7] worked out at 0%; in [8], 60%; in [9], 50%; in [10], 70%; in [11], 100%; in assay [12], 57%. Besides, the remaining binding at 1 µM is 98% in assay [13], 70% in assay [14], 100% in assay [15] and 69% in assay [16].
For `CC1(Nc2nc(Nc3cnn([C@H]4CCN(C5COC5)C[C@@H]4F)c3Cl)nc3[nH]cc(C#N)c23)CC1` [Example 52, 2-((5-chloro-1-((3S,4S)-3-fluoro-1-(oxetane-3-yl)piperidine-4-yl)-1H-pyrazole-4-yl)amino)((1-methylcyclopropyl)amino)-7H-pyrrolo[2,3-d]pyrimidine-5-carbonitrile], the remaining binding at 1 µM was 23% in assay [1]; 84% in [2]; 100% in [3]; 88% in assay [4]; 93% in assay [5]; 18% in assay [6]. Moreover, the remaining binding at 1 µM in assay [7] is 0%; in assay [8] it was 11%; in assay [9] it was 14%; in [10] it was 52%; in assay [11], 100%; in assay [12] it was 28%. Besides, the remaining binding at 1 µM in assay [13] worked out at 47%; in [14], 27%; in [15] it was 12%; in [16] it was 41%.
`CCNc1nc(Nc2ccc(C(=O)N3CCC(N4CCOCC4)CC3)cc2OC)nc2[nH]cc(C(F)(F)F)c12` [Example 104, (4-((4-(ethylamino)-5-(trifluoromethyl)-7H-pyrrolo[2,3-d]pyrimidine-2-yl)amino)-3-methoxyphenyl)(4-morpholinopiperidine-1-yl)methanone]: the remaining binding at 1 µM in assay [1] turned out to be 22%; in [2], 100%; in [3] it was 100%; in assay [4] it was 100%; in assay [5] it was 100%; in [6], 13%. In addition, the remaining binding at 1 µM stood at 1.2% in assay [7]; 100% in assay [8]; 66% in assay [9]; 80% in assay [10]; 100% in [11]; 83% in [12]. In addition, the remaining binding at 1 µM was 100% in assay [13], 4% in assay [14], 100% in assay [15] and 66% in [16].
